Data: patent US20040156869A1, “2-substituted quinazolin-4-ylamine analogues” (Neurogen Corporation, priority 2002, published 2004)

Target: human capsaicin receptor (VR1) (Homo sapiens, UniProt Q8NER1)
Test: Capsaicin receptor binding assay ([3H]RTX competition, VR1-transfected HEK293 membranes)

Sequence of human capsaicin receptor (VR1) (Q8NER1 whole entry): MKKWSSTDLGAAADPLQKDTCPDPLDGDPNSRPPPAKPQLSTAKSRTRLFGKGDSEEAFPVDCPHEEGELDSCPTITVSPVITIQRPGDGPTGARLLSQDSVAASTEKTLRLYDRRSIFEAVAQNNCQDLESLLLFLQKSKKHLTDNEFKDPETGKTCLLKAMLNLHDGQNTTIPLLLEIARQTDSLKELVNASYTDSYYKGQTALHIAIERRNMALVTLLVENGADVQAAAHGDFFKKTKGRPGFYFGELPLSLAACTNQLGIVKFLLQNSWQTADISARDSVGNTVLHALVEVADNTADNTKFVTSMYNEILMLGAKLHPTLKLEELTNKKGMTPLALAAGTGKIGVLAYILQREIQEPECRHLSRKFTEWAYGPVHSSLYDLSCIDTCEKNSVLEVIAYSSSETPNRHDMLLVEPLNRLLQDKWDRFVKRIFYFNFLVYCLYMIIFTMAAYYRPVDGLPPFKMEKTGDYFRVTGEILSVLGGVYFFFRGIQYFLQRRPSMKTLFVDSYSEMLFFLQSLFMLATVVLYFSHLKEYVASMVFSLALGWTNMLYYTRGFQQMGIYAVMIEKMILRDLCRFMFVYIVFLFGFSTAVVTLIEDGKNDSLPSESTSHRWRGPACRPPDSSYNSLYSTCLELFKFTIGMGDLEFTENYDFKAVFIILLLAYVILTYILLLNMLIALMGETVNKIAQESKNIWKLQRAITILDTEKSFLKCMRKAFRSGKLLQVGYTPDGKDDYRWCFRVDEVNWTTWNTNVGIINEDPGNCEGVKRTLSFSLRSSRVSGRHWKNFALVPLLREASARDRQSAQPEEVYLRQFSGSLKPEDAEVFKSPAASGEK

Ki, < 1000 nM:
FC(F)(F)c1ccc(Nc2nc(COCc3cccnc3)nc3cc(-c4ncccc4C(F)(F)F)ccc23)cn1 [Compound 45, [2-(Pyridin-3-ylmethoxymethyl)-7-(3-trifluoromethyl-pyridin-2-yl)-quinazolin-4-yl]-(6-trifluoromethyl-pyridin-3-yl)-amine]
FC(F)(F)c1ccc(Nc2nc(COCc3ccncc3)nc3cc(-c4ncccc4C(F)(F)F)ccc23)cn1 [Compound 46, [2-(Pyridin-4-ylmethoxymethyl)-7-(3-trifluoromethyl-pyridin-2-yl)-quinazolin-4-yl]-(6-trifluoromethyl-pyridin-3-yl)-amine]
COCCc1nc(Nc2ccc(C(C)(C)C)cc2)c2ccc(-c3ncccc3C(F)(F)F)cc2n1 [Compound 47, (4-tert-Butyl-phenyl)-[2-(2-methoxy-ethyl)-7-(3-trifluoromethyl-pyridin-2-yl)-quinazolin-4-yl]-amine]
COCCc1nc(Nc2ccc(C(C)C)cc2)c2ccc(-c3ncccc3C(F)(F)F)cc2n1 [Compound 48, (4-Isopropyl-phenyl)-[2-(2-methoxy-ethyl)-7-(3-trifluoromethyl-pyridin-2-yl)-quinazolin-4-yl]-amine]
COCCc1nc(Nc2ccc(C(C)(C)C)nc2)c2ccc(-c3ncccc3C(F)(F)F)cc2n1 [Compound 49, (6-tert-Butyl-pyridin-3-yl)-[2-(2-methoxy-ethyl)-7-(3-trifluoromethyl-pyridin-2-yl)-quinazolin-4-yl]-amine]
COCc1nc(Nc2ccc(C(C)(C)C)cc2)c2ncc(-c3ncccc3C(F)(F)F)cc2n1 [Compound 50, (4-tert-Butyl-phenyl)-[2-methoxymethyl-7-(3-trifluoromethyl-pyridin-2-yl)-pyrido[3,2-d]pyrimidin-4-yl]-amine]
COCc1nc(Nc2ccc(C(C)C)cc2)c2ncc(-c3ncccc3C(F)(F)F)cc2n1 [Compound 51, (4-Isopropyl-phenyl)-[2-methoxymethyl-7-(3-trifluoromethyl-pyridin-2-yl)-pyrido[3,2-d]pyrimidin-4-yl]-amine]
CCc1ccc(Nc2nc(COC)nc3cc(-c4ncccc4C(F)(F)F)cnc23)cc1 [Compound 52, (4-Ethyl-phenyl)-[2-methoxymethyl-7-(3-trifluoromethyl-pyridin-2-yl)-pyrido[3,2-d]pyrimidin-4-yl]-amine]
COCc1nc(Nc2ccc(C(F)(F)F)nc2)c2ncc(-c3ncccc3C(F)(F)F)cc2n1 [Compound 53, [2-Methoxymethyl-7-(3-trifluoromethyl-pyridin-2-yl)-pyrido[3,2-d]pyrimidin-4-yl]-(6-trifluoromethyl-pyridin-3-yl)-amine]
COCc1nc(Nc2ccc(C(C)=O)cc2)c2ncc(-c3ncccc3C(F)(F)F)cc2n1 [Compound 54, 1-{4-[2-Methoxymethyl-7-(3-trifluoromethyl-pyridin-2-yl)-pyrido[3,2-d]pyrimidin-4-ylamino]-phenyl}-ethanone]
COCc1nc(Nc2ccc(C#N)cc2)c2ncc(-c3ncccc3C(F)(F)F)cc2n1 [Compound 55, 4-[2-Methoxymethyl-7-(3-trifluoromethyl-pyridin-2-yl)-pyrido[3,2-d]pyrimidin-4-ylamino]-benzonitrile]
COCc1nc(Nc2ccc(C3CCCCC3)cc2)c2ncc(-c3ncccc3C(F)(F)F)cc2n1 [Compound 56, (4-Cyclohexyl-phenyl)-[2-methoxymethyl-7-(3-trifluoromethyl-pyridin-2-yl)-pyrido[3,2-d]pyrimidin-4-yl]-amine]
CCCC(=O)c1ccc(Nc2nc(COC)nc3cc(-c4ncccc4C(F)(F)F)cnc23)cc1 [Compound 57, 1-{4-[2-Methoxymethyl-7-(3-trifluoromethyl-pyridin-2-yl)-pyrido[3,2-d]pyrimidin-4-ylamino]-phenyl}-butan-1-one]
COCc1nc(Nc2ccc(C(C)(C)COC)cc2)c2ncc(-c3ncccc3C(F)(F)F)cc2n1 [Compound 58, [4-(2-Methoxy-1,1-dimethyl-ethyl)-phenyl]-[2-methoxymethyl-7-(3-trifluoromethyl-pyridin-2-yl)-pyrido[3,2-d]pyrimidin-4-yl]-amine]
COCc1nc(Nc2ccc(C(C)(C)C)cc2)c2ccc(-c3ncccc3Cl)nc2n1 [Compound 59, (4-tert-Butyl-phenyl)-[7-(3-chloro-pyridin-2-yl)-2-methoxymethyl-pyrido[2,3-d]pyrimidin-4-yl]-amine]
COCc1nc(Nc2ccc(C(C)C)cc2)c2ccc(-c3ncccc3Cl)nc2n1 [Compound 60, [7-(3-Chloro-pyridin-2-yl)-2-methoxymethyl-pyrido[2,3-d]pyrimidin-4-yl]-(4-isopropyl-phenyl)-amine]
COCc1nc(Nc2ccc(C(C)(C)COC)cc2)c2ccc(-c3ncccc3Cl)nc2n1 [Compound 61, [7-(3-Chloro-pyridin-2-yl)-2-methoxymethyl-pyrido[2,3-d]pyrimidin-4-yl]-[4-(2-methoxy-1,1-dimethyl-ethyl)-phenyl]-amine]
COCc1nc(Nc2ccc(C(C)(C)C#N)cc2)c2ccc(-c3ncccc3Cl)nc2n1 [Compound 62, 2-{4-[7-(3-Chloro-pyridin-2-yl)-2-methoxymethyl-pyrido[2,3-d]pyrimidin-4-ylamino]-phenyl}-2-methyl-propionitrile]
CCC(C)c1ccc(Nc2nc(COC)nc3nc(-c4ncccc4Cl)ccc23)cc1 (stereo not shown) [Compound 63, (4-sec-Butyl-phenyl)-[7-(3-chloro-pyridin-2-yl)-2-methoxymethyl-pyrido[2,3-d]pyrimidin-4-yl]-amine]
COCc1nc(Nc2ccc(C(C)(C)C)cc2)c2ncc(-c3ncccc3Cl)cc2n1 [Compound 65, (4-tert-Butyl-phenyl)-[7-(3-chloro-pyridin-2-yl)-2-methoxymethyl-pyrido[3,2-d]pyrimidin-4-yl]-amine]
COCc1nc(Nc2ccc(C(C)C)cc2)c2ncc(-c3ncccc3Cl)cc2n1 [Compound 66, [7-(3-Chloro-pyridin-2-yl)-2-methoxymethyl-pyrido[3,2-d]pyrimidin-4-yl]-(4-isopropyl-phenyl)-amine]
COCc1nc(Nc2ccc(C(C)(C)C)nc2)c2ccc(-c3ncccc3Cl)cc2n1 [Compound 68, (6-tert-Butyl-pyridin-3-yl)-[7-(3-chloro-pyridin-2-yl)-2-methoxymethyl-quinazolin-4-yl]-amine]
COCc1nc(Nc2ccc(C(C)C)cc2)c2ccc(-c3ncccc3Cl)cc2n1 [Compound 69, [7-(3-Chloro-pyridin-2-yl)-2-methoxymethyl-quinazolin-4-yl]-(4-isopropyl-phenyl)-amine]
COCc1nc(Nc2ccc(C(F)(F)F)cc2)c2ccc(-c3ncccc3Cl)cc2n1 [Compound 70, [7-(3-Chloro-pyridin-2-yl)-2-methoxymethyl-quinazolin-4-yl]-(4-trifluoromethyl-phenyl)-amine]
COCc1nc(Nc2ccc(C(C)(C)C)cc2)c2ccc(-c3ncccc3Cl)cc2n1 [Compound 71, (4-tert-Butyl-phenyl)-[7-(3-chloro-pyridin-2-yl)-2-methoxymethyl-quinazolin-4-yl]-amine]
COCc1nc(Nc2ccc(C(C)C)cc2)c2ccc(-c3ncccc3C(F)(F)F)cc2n1 [Compound 72, (4-Isopropyl-phenyl)-[2-methoxymethyl-7-(3-trifluoromethyl-pyridin-2-yl)-quinazolin-4-yl]-amine]
COCc1nc(Nc2ccc(C(C)(C)C)cc2)c2ccc(-c3ncccc3C(F)(F)F)cc2n1 [Compound 73, (4-tert-Butyl-phenyl)-[2-methoxymethyl-7-(3-trifluoromethyl-pyridin-2-yl)-quinazolin-4-yl]-amine]
COCc1nc(Nc2ccc(C(C)(C)C)nc2)c2ccc(-c3ncccc3C(F)(F)F)cc2n1 [Compound 74, (6-tert-Butyl-pyridin-3-yl)-[2-methoxymethyl-7-(3-trifluoromethyl-pyridin-2-yl)-quinazolin-4-yl]-amine]
COCCOCc1nc(Nc2ccc(C(C)(C)C)cc2)c2ccc(-c3ncccc3Cl)nc2n1 [Compound 75, (4-tert-Butyl-phenyl)-[7-(3-chloro-pyridin-2-yl)-2-(2-methoxy-ethoxymethyl)-pyrido[2,3-d]pyrimidin-4-yl]-amine]
COCCOCc1nc(Nc2ccc(C(F)(F)F)cc2)c2ccc(-c3ncccc3Cl)nc2n1 [Compound 76, [7-(3-Chloro-pyridin-2-yl)-2-(2-methoxy-ethoxymethyl)-pyrido[2,3-d]pyrimidin-4-yl]-(4-trifluoromethyl-phenyl)-amine]
COCCOCc1nc(Nc2ccc(C(C)C)cc2)c2ccc(-c3ncccc3Cl)nc2n1 [Compound 77, [7-(3-Chloro-pyridin-2-yl)-2-(2-methoxy-ethoxymethyl)-pyrido[2,3-d]pyrimidin-4-yl]-(4-isopropyl-phenyl)-amine]
COCc1nc(Nc2ccc(C(C)C)cc2)c2ccc(-c3ncccc3C)cc2n1 [Compound 78, (4-Isopropyl-phenyl)-[2-methoxymethyl-7-(3-methyl-pyridin-2-yl)-quinazolin-4yl]-amine]
CCOCc1nc(Nc2ccc(C(C)(C)C)cc2)c2ccc(-c3ncccc3Cl)cc2n1 [Compound 79, (4-tert-Butyl-phenyl)-[7-(3-chloro-pyridin-2-yl)-2-ethoxymethyl-quinazolin-4-yl]-amine]
CCOCc1nc(Nc2ccc(C(C)C)cc2)c2ccc(-c3ncccc3Cl)cc2n1 [Compound 80, [7-(3-Chloro-pyridin-2-yl)-2-ethoxymethyl-quinazolin-4-yl]-(4-isopropyl-phenyl)-amine]
